Experimental findings from US20220226496A1, “LIGAND-DRUG CONJUGATE INCLUDING LINKER HAVING TRIS STRUCTURE” (LEGOCHEM BIOSCIENCES, INC., priority 2019, published 2022) are described below.

Non-standard residues stand in square brackets, D forms with d. Residues, ends and D or L forms follow the SMILES beside them. *: point of attachment. Dolaproine = CO[C@@H]([C@@H]1CCCN1)[C@@H](C)C(=O)O; Dil = CC[C@H](C)[C@H](NC)[C@@H](CC(=O)O)OC; X1 = C[C@@H](N*)[C@@H](O)c1ccccc1; NMeV = CN[C@H](C(=O)O)C(C)C

Common to all, as to experiment: In vitro cytotoxicity evaluation (cell proliferation inhibition, SRB dye)
What all share (assay type): cell-based, human
On the technique in general: Sulforhodamine B stains cellular protein and so reports cell mass.

For data set [1], the system named is MCF-7 (HER2 negative to normal). Particulars: MCF7 cells, SRB viable cell count; no 144 h footnote (168-hour treatment group). The protocol:
(§1) The cell proliferation inhibitory activity of the drug and ADCs listed in Table 2 below on cancer cell lines was measured. As the cancer cell lines, commercially available human breast cancer cell lines MCF-7 (HER2 negative to normal), SK-BR3 (HER2 positive), and JIMT-1 (HER2 positive) were used. MMAE was used as the drug, and the ADCs in Table 1 were used as the ADC. Each cancer cell line was seeded in a 96-well plate at 2,500 to 5,000 cells per well for 144-hour treatment group and 1,500 to 3,000 cells per well for 168-hour treatment group, cultured for 24 hours, and then treated with the ADCs and drug at concentrations of 0.00015 to 10.0 nM (4-fold serial dilution) or 0.0015 to 10 nM (3-fold serial dilution). After 144/168 hours, the number of viable cells was quantified using SRB (sulforhodamine B) dye.

The next data set deals with SK-BR3 (HER2 positive). The conditions noted are these: SK-BR3 cells, SRB viable cell count; no 144 h footnote (168-hour treatment group). The method, then:
as §1

Another data set deals with JIMT-1 (HER2 positive). Particulars: JIMT-1 cells, SRB viable cell count; no 144 h footnote (168-hour treatment group). The method, then: as §1

With `CC[C@H](C)[C@@H]([C@@H](CC(=O)N1CCC[C@H]1[C@H](OC)[C@@H](C)C(=O)N[C@H](C)[C@@H](O)c1ccccc1)OC)N(C)C(=O)[C@@H](NC(=O)[C@@H](NC)C(C)C)C(C)C` [MMAE, monomethyl auristatin E] (H-[NMeV]V[Dil][Dolaproine]-X1), the values for the CC50 (in data set [1]; in the data set on SK-BR3 (HER2 positive); with JIMT-1 (HER2 positive)) were 0.31 nM, 0.12 nM and 0.09 nM, respectively.

One may read the CC50 as the concentration giving 50% cytotoxicity. A high value points to lower toxicity to the cells.
